Data taken from patent US8173158B2, “Methods of treating gastrointestinal disorders independent of the intake of food” (Takeda Pharmaceuticals U.S.A., Inc., priority 2007, dated 2012).

Assay: Effect and timing of food on pharmacokinetics of TAK-390 after a single oral dose of TAK-390MR 90 mg (phase 1, 4-way crossover)
Format: in vivo, human
Details: oral 90 mg dose with a high fat meal
Method: The purpose of this study was to evaluate the effect of food on the pharmacokinetics (PK) and pharmacodynamics (PD) of TAK-390 after a single oral dose of TAK-390 MR 90 mg, made as described in Example 1. This study was a phase 1, open-label, randomized, single-dose, 4-way crossover study conducted at a single center. Healthy adult subjects were randomized on Day 1 of Period 1 to 1 of 4 sequence groups that determined the order in which patients received the 4 different dosing regimens (See, Table 4, below). […] There was a minimum washout interval of at least 5 days between the last dose in a period and the first dose in the subsequent period. […] PK parameters for TAK-390 were estimated using standard noncompartmental methods and include: tlag=time delay between drug administration and first observed concentration above the lower limit of quantitation; tmax=time to reach the observed maximum plasma concentration; Cmax=observed maximum plasma concentration; and AUC=area under the plasma concentration vs time curve from time zero the last quantifiable concentration (AUCt) and from time zero to infinity (AUC∞).

increase in AUC∞: approximately 37% | increase in Cmax: approximately 37%
Compound: Cc1c(OCC(F)(F)F)ccnc1C[S@@+]([O-])c1nc2ccccc2[nH]1 [dexlansoprazole]
